Measurements as given in patent publication US9890146B2, “Compound having selective EP2 agonist activity” (ONO PHARMACEUTICAL CO., LTD., priority 2014, dated 2018).
Where two headings read alike, the source gives them in different places.

Tests used:
[1] = tested on: male monkey (a cynomolgus monkey); assay: Intraocular pressure lowering activity after ocular instillation; assay type: in vivo; settings: Primates, in Macaca fascicularis, topical, maximum rate during 24 hours after ocular instillation of 30 μL, conscious monkey; for inhibition in vivo at 100 µg/mL: administration concentration 100 μg/mL; for inhibition in vivo at 3 µg/mL: administration concentration 3 μg/mL; for inhibition in vivo at 10 µg/mL: administration concentration 10 μg/mL; for inhibition in vivo at 30 µg/mL: administration concentration 30 μg/mL
Description: As can be easily understood by a person skilled in the art, in an in vivo test, since regarding all test compounds, carboxylic acid which is an active body has poor corneal permeability, pharmacological action of the active body was evaluated by ocular instillation administration of a compound which had been converted into an ester such as an ethyl ester or an isopropyl ester, or an alcohol.
A test compound-containing solution (30 μL) which had been adjusted to each of various concentrations was ocular instillation-administered to the left or right eye of a male monkey (a cynomolgus monkey) under consciousness. An intraocular pressure after administration was measured with time from administration initiation to after 24 hours. Upon measurement of an intraocular pressure, a cynomolgus monkey was fixed on a monkey chair, and the monkey was anesthetized by ocular instillation-administering an ocular surface anesthetic (Benoxil eye drops 0.4% Santen Pharmaceutical Co., Ltd.). After mounting of a blepharostat (Handaya Co., Ltd.), an intraocular pressure of both eyes was measured (7 to 8 examples per group) using a pneumatic applanation flat tonometer (Model 30 Classic, REICHERT). A difference between an intraocular pressure value before the administration of a test substance and an intraocular pressure value after the administration of the test substance was calculated as an intraocular pressure lowering rate in accordance with the following equation, and the sustainability of intraocular eye lowering action was evaluated using a maximum intraocular pressure lowering rate during measurement.
The administered concentrations were determined based on the EP2 agonist activities measured by the above-mentioned method.

[2] = target: T1, human EP2 (Homo sapiens, UniProt P43116); assay: Measurement of EP2 agonist activity (measurement of cAMP concentration); assay type: cell-based
T1 construct: expressed in transfected cells; host or cells: CHO cells (EP2-CHO)
Description: Using Chem1 cells or CHO cells in which various prostanoid receptors were forcibly expressed, respectively, agonist activities of test compounds on various prostanoid receptors was determined employing, as a measure, an intracellular cyclic AMP (hereinbelow, abbreviated as “cAMP”) production amount or an intracellular calcium concentration.
The test compound and a control substance (PGE2 and PGF2α) were dissolved in dimethyl sulfoxide (DMSO) to prepare a 10 mmol/L solution. The 10 mmol/L solution thus prepared was thawed upon use, then serially diluted with DMSO, and then diluted with a buffer solution for measurement use or a buffer solution for measurement use 2, and then the resulting solution was subjected to an experiment.
Cells forcibly expressing various prostanoid receptors were standing-cultured at 37° C. in the presence of 5% CO2 using a DMEM medium (Sigma) (for culturing FP-Chem1) containing inactivated (56° C., 30 minutes) 9.8 vol % nondialysed-FBS (Life Technologies), 1 vol % Non Essential Amino Acids (Life Technologies), 10 mmol/L HEPES Buffer Solution (Life Technologies), 0.5 vol % GENETICIN (Life Technologies) and 1% penicillin-streptomycin (Life Technologies) or an α-MEM medium (Sigma) (for culturing EP2-CHO) containing inactivated (56° C., 30 minutes) 9.8 vol % dialysed-FBS (Life Technologies) and penicillin-streptomycin-glutamine (Life Technologies). Subculturing was carried out by the following manner.
The medium was removed, and washed with a phosphate-buffered physiological saline not containing Ca^2+ and Mg^2+ one time. A proper amount of trypsin-EDTA (Life Technologies) was added, and this was incubated at room temperature, cells were peeled, and a medium having a volume which is 10-fold a volume of trypsin-EDTA was added to stop an enzymatic reaction. After cells were recovered into a centrifuging tube, and centrifuged at room temperature for 3 minutes at 120 g, the supernatant was removed. Cells were suspended in a proper amount of a medium, and seeded in a culturing flask.
On the measurement day, a medium was removed, and EP2-CHO was washed with a phosphate-buffered physiological saline containing 2 mmol/L EDTA and not containing Ca^2+ and Mg^2+ one time. A proper amount of the phosphate-buffered physiological saline containing 2 mmol/L EDTA and not containing Ca^2+ and Mg^2+ was added, this was incubated at 37° C. in the presence of 5% CO2, cells were peeled, cells were recovered into a centrifuging tube, and centrifuged at room temperature for 3 minutes at 550 g, and the supernatant was removed. Cells were suspended in a proper amount of a buffer solution for measurement 1 (MEM medium (Invitrogen) containing 1.0 w/v % bovine serum albumin (Sigma) and 2 μmol/L diclofenac (Sigma)), and centrifuged at room temperature for 3 minutes at 200 g, and the supernatant was removed. Cells were suspended in a buffer solution for measurement 2 (MEM medium (Invitrogen) containing 1.0 w/v % bovine serum albumin (Sigma), 2 μmol/L diclofenac (Sigma) and 1 mmol/L 3-isobutyl-1-methylxanthine), and each 25 μL of the suspension was dispensed into a 96-well ½ area plate so that the cell number per well became […]. A buffer solution for measurement 2 (25 μL) containing an agonist at a variety of concentrations was added to carry out a reaction at room temperature for 30 minutes. Measurement of a cAMP concentration was carried out using the cAMP HTRF HiRange kit (CIS bio International). According to the two step protocol of the kit manual, each 25 μL of cAMP-D2 and Cryptase diluted with a lysis buffer were added, and this was incubated at room temperature for 1 hour. After incubation for 1 hour, time resolution fluorescence at 620 nm and 660 nm when excited at 340 nm was measured using SpectraMax M5e (Molecular Device), and a ratio (TRF ratio) was obtained, thereby, a cAMP concentration was calculated from a calibration line. […]

[3] = EP2-CHO cells, cAMP production (HTRF), reaction 30 minutes at room temperature, read-out: EP2 agonist activity EC50

T1 sequence (P43116 whole entry): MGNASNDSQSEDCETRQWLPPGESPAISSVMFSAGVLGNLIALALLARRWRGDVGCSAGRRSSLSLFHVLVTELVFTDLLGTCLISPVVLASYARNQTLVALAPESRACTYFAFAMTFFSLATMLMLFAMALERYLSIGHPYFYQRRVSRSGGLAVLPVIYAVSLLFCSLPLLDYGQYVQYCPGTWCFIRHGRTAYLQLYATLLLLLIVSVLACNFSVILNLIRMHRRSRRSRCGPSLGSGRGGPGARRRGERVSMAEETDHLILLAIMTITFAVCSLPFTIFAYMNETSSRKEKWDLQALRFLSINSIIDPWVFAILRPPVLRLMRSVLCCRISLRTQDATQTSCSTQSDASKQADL

Work on CCc1ccc(OC[C@@H]2[C@H]3CC[C@H](c4nc(CO)cs4)O[C@H]3C[C@@H]2O)cc1C1CCC1 [10(17), (2R,4aR,5S,6S,7aS)-5-[(3-cyclobutyl-4-ethylphenoxy)methyl]-2-[4-(hydroxymethyl)-1,3-thiazol-2-yl]octahydrocyclopenta[b]pyran-6-ol] yielded an inhibition in vivo at 100 µg/mL [1] of 57%.

Cc1cc(OC[C@@H]2[C@H]3CC[C@H](c4nc(C(=O)OC(C)C)cs4)O[C@H]3C[C@H]2O)ccc1[N+](=O)[O-] [3(3), isopropyl 2-{(2R,4aR,5S,6R,7aS)-6-hydroxy-5-[(3-methyl-4-nitrophenoxy)methyl]octahydrocyclopenta[b]pyran-2-yl}-1,3-thiazole-4-carboxylate] showed an inhibition in vivo at 3 µg/mL [1] of 33%.

Cc1ccc(OC[C@@H]2[C@H]3CC[C@H](c4nc(CO)cs4)O[C@H]3C[C@H]2O)cc1C [2(12), (2R,4aR,5S,6R,7aS)-5-[(3,4-dimethylphenoxy)methyl]-2-[4-(hydroxymethyl)-1,3-thiazol-2-yl]octahydrocyclopenta[b]pyran-6-ol] was tested, and the inhibition in vivo at 10 µg/mL [1] was 43%.

For OCc1csc([C@H]2CC[C@@H]3[C@@H](COc4ccc5ccoc5c4)[C@H](O)C[C@@H]3O2)n1 [2(8), (2R,4aR,5S,6R,7aS)-5-[(1-benzofuran-6-yloxy)methyl]-2-[4-(hydroxymethyl)-1,3-thiazol-2-yl]octahydrocyclopenta[b]pyran-6-ol], the inhibition in vivo at 30 µg/mL [1] was 55%.

In the case of OCc1csc([C@H]2CC[C@@H]3[C@@H](COc4ccc5c(c4F)CCC5)[C@H](O)C[C@@H]3O2)n1 [2(16), (2R,4aR,5S,6R,7aS)-5-{[(4-fluoro-2,3-dihydro-1H-inden-S-yl)oxy]methyl}-2-[4-(hydroxymethyl)-1,3-thiazol-2-yl]octahydrocyclopenta[b]pyran-6-ol], the inhibition in vivo at 30 µg/mL [1] is reported as 51%.

CCc1cc(OC[C@@H]2[C@H]3CC[C@H](c4nc(CO)cs4)O[C@H]3C[C@@H]2O)ccc1C [10(3), (2R,4aR,5S,6S,7aS)-5-[(3-ethyl-4-methylphenoxy)methyl]-2-[4-(hydroxymethyl)-1,3-thiazol-2-yl]octahydrocyclopenta[b]pyran-6-ol] showed an inhibition in vivo at 1 µg/mL ([1]; administration concentration 1 μg/mL) of 49%.

CC(C)OC(=O)c1csc([C@H]2CC[C@@H]3[C@@H](COc4ccccc4)[C@H](O)C[C@@H]3O2)n1 [3(1), isopropyl 2-[(2R,4aR,5S,6R,7aS)-6-hydroxy-5-(phenoxymethyl)octahydrocyclopenta[b]pyran-2-yl]-1,3-thiazole-4-carboxylate] was tested, and the inhibition in vivo at 100 µg/mL [1] was 28%.

OCc1csc([C@H]2CC[C@@H]3[C@@H](COc4ccc5c(c4)CCC5)[C@@H](O)C[C@@H]3O2)n1 [10(1), (2R,4aR,5S,6S,7aS)-5-[(2,3-dihydro-1H-inden-5-yloxy)methyl]-2-[4-(hydroxymethyl)-1,3-thiazol-2-yl]octahydrocyclopenta[b]pyran-6-ol] showed an inhibition in vivo at 3 µg/mL [1] of 29%.

In the case of OCc1csc([C@H]2CC[C@@H]3[C@@H](COc4ccc(Cl)c(C5CC5)c4)[C@H](O)C[C@@H]3O2)n1 [2(10), (2R,4aR,5S,6R,7aS)-5-[(4-chloro-3-cyclopropylphenoxy)methyl]-2-[4-(hydroxymethyl)-1,3-thiazol-2-yl]octahydrocyclopenta[b]pyran-6-ol], the inhibition in vivo at 10 µg/mL [1] is reported as 31%.

For CC(C)OC(=O)c1csc([C@H]2CC[C@@H]3[C@@H](COc4ccc5c(c4)CCC5)[C@H](O)C[C@@H]3O2)n1 [3(4)], the inhibition in vivo at 30 µg/mL [1] was 35%.

For OCc1csc([C@H]2CC[C@@H]3[C@@H](COc4ccc5c(c4)CCCCC5)[C@@H](O)C[C@@H]3O2)n1 [10(16), (2R,4aR,5S,6S,7aS)-2-[4-(hydroxymethyl)-1,3-thiazol-2-yl]-5-[(6,7,8,9-tetrahydro-5H-benzo[7]annulen-2-yloxy)methyl]octahydrocyclopenta[b]pyran-6-ol], the inhibition in vivo at 10 µg/mL [1] was 45%.

For CCc1cc(OC[C@@H]2[C@H]3CC[C@H](c4nc(CO)cs4)O[C@H]3C[C@H]2O)ccc1C [2(9), (2R,4aR,5S,6R,7aS)-5-[(3-ethyl-4-methylphenoxy)methyl]-2-[4-(hydroxymethyl)-1,3-thiazol-2-yl]octahydrocyclopenta[b]pyran-6-ol], the inhibition in vivo at 10 µg/mL [1] was 52%.

OCc1csc([C@H]2CC[C@@H]3[C@@H](COc4ccc5c(c4)CC5)[C@H](O)C[C@@H]3O2)n1 [2(7), (2R,4aR,5S,6R,7aS)-5-[(bicyclo[4.2.0]octa-1,3,5-trien-3-yloxy)methyl]-2-[4-(hydroxymethyl)-1,3-thiazol-2-yl]octahydrocyclopenta[b]pyran-6-ol] was tested, and the inhibition in vivo at 30 µg/mL [1] was 38%.

OCc1csc([C@H]2CC[C@@H]3[C@@H](COc4ccc5c(c4F)CCC5)[C@@H](O)C[C@@H]3O2)n1 [10(22), (2R,4aR,5S,6S,7aS)-5-{[(4-fluoro-2,3-dihydro-1H-inden-5-yl)oxy]methyl}-2-[4-(hydroxymethyl)-1,3-thiazol-2-yl]octahydrocyclopenta[b]pyran-6-ol] gave an inhibition in vivo at 3 µg/mL [1] of 43%.

With CSc1cc(OC[C@@H]2[C@H]3CC[C@H](c4nc(CO)cs4)O[C@H]3C[C@@H]2O)ccc1C [10(12), (2R,4aR,5S,6S,7aS)-2-[4-(hydroxymethyl)-1,3-thiazol-2-yl]-5-{[4-methyl-3-(methylthio)phenoxy]methyl}octahydrocyclopenta[b]pyran-6-ol] the inhibition in vivo at 0.3 µg/mL ([1]; administration concentration 0.3 μg/mL) was 33%.

Compound O=C(O)c1csc([C@H]2CC[C@@H]3[C@@H](COc4ccc5c(c4)CCCC5)[C@@H](O)C[C@@H]3O2)n1 [9(12), 2-{(2R,4aR,5S,6S,7aS)-6-hydroxy-5-[(5,6,7,8-tetrahydro-2-naphthalenyloxy)methyl]octahydrocyclopenta[b]pyran-2-yl}-1,3-thiazole-4-carboxylic acid] has an EC50 [2, 3] of 6.4 nM.

For O=C(O)c1ccc(C2=CC[C@@H]3[C@@H](/C=C/[C@@H](O)C4CCCC4)[C@H](O)C[C@@H]3O2)o1 [reference compound], the EC50 ([2]; prior-art compounds having an analogous structure, same EP2 test, read-out: EP2 agonist activities, EC50 values) was ≥ 10000 nM.

In the case of Cc1cc(OC[C@@H]2[C@H]3CC[C@H](c4nc(C(=O)O)cs4)O[C@H]3C[C@H]2O)ccc1[N+](=O)[O-] [1(4), 2-{(2R,4aR,5S,6R,7aS)-6-hydroxy-5-[(3-methyl-4-nitrophenoxy)methyl]octahydrocyclopenta[b]pyran-2-yl}-1,3-thiazole-4-carboxylic acid], the EC50 [2, 3] is reported as 0.5 nM.
